Data reported in USRE46907E1, “Suppression of cancer growth and metastasis using nordihydroguaiaretic acid derivatives with metabolic modulators” (THE JOHNS HOPKINS UNIVERSITY, priority 2008, dated 2018).

Tests used:
[1] = system: PDK-1/Akt pathway-related proteins; assay: Western blotting of PDK-1/Akt pathway-related proteins in 67NR cells; type: cell-based, mouse; details: 5 hrs after treatment
Protocol: (§1) Western blotting: After cells had been grown in 25 mm^2 flasks and treated with reagents, the cells were washed with PBS (−) three times and suspended in RIP A buffer (150 mM NaCl, 50 mM Tris-HCl (pH 8,0), 0.1% SDS, 1% NP40, and 0.5% deoxycholate) supplemented with protease inhibitor cocktail (Calbiochem, San Diego, Calif.). The sample volumes were adjusted by the total protein amount. Protein assay was performed by Bio-Rad Protein Assay (Bio-Rad Laboratories, Inc. Hercules, Calif.). The samples were resolved by the standard SDS-polyacrylamide gel electrophoresis and transferred to nitrocellulose membrane (Amersham Biosciences, Bjorkgatan, Sweden). The membranes were blocked with skim milk, and incubated with primary antibodies at 4° C. overnight and then with secondary antibody conjugated with horse radish peroxidase at room temperature for 2 hrs. The signals were detected by western blot chemiluminescence reagent plus (New England Nuclear Life Science Products, Boston, Mass.).

caspase-9 = assay: Western blotting of caspase-9 cleavage in 67NR cells; type: cell-based, mouse; details: 5 hrs, Rottlerin 5 μM, M4N 80 μM
Protocol: as §1

PKCδ [2] = assay: Western blotting of total PKCδ and phosphor-PKCδ (Thr505) in 67NR cells; type: cell-based, mouse; details: 5 hrs, M4N 80 μM, Ro 5 μM, Ly 20 μM, Des 150 μM
Protocol: as §1, with “The” for “Western blotting: After cells had been grown in 25 mm^2 flasks and treated with reagents, the cells were washed with PBS (−) three times and suspended in RIP A buffer (150 mM NaCl, 50 mM Tris-HCl (pH 8,0), 0.1% SDS, 1% NP40, and 0.5% deoxycholate) supplemented with protease inhibitor cocktail (Calbiochem, San Diego, Calif.). The”

[3] = system: LNCaP human prostate cancer cells; type: cell-based; details: 28 hrs, M4N 80 μM, Ro 5 μM, Ly 20 μM
Protocol: (§2) Cell Culture Either cell line 4T1 or 67NR was a gift from Dr. Miller (20). The cells were cultured in RPMI1640 medium supplemented with glucose (14 mM), pyruvate (1 mM), penicillin (100 units/ml), streptomycin (100 μg/ml), and fetal bovine serum (10%), buffered with 25 mM HEPES (pH 7.4). LNCaP human prostate cancer cell line was purchased from American Type Culture Collection (Manassas, Va.). The cell line was cultured in RPMI1640 medium supplemented with glucose (14 mM), pyruvate (1 mM), penicillin (100 units/ml), streptomycin (100 μg/ml), and fetal bovine serum (10%). Drugs were dissolved in dimethyl sulfoxide (DMSO) at a suitable concentration so that the final concentration of DMSO in the medium was less than 0.1%.
Apoptosis assay: Simple TLTNEL assay was conducted by using TUNEL apoptosis detection kit (Upstate, Temecula, Calif.) with some modification. For the evaluation of the effect of PKCδ wild type and dominant negative vectors on TUNEL-positive cell death, we first transfected 4T1 or 67NR cells with these vectors by effectene (Qiagen, Valencia, Calif.). Wild type PKCδ vector is constructed from wild type PKCδ gene and pEGFP (Promega, Madison, Wis.). Dominant negative PKCδ vector is constructed from PKCδ gene mutated at a 376th amino acid residue (threonine) and pEGFP (Promega, Madison, Wis.) This threonine residue is located in ATP-binding domain of protein kinase Cδ, and therefore essential for any kinase reaction of the protein so that this mutant protein supposedly function as dominant negative. As a control we used pEGFP-N3 vector was used. These vectors contain green fluorescent protein (GFP) gene to be used as a transfection marker. The vectors are kind gifts from Dr. Yuspa (National Institutes of Health, Bethesda, Md.) (88). Twenty four hours after transfection, the cells were treated with M4N, Rottlerin, or Ly294002. Then 24 hrs after this treatment with these reagents, the cells were fixed with 10% formaldehyde in phosphate buffered saline without calcium and magnesium (PBS (−)). The cells were then incubated with rabbit anti-GFP antibody (MBL International, Woburn, Mass.) followed by treatment with anti-rabbit IgG antibody conjugated with fluorescein (Promega, Madison, Wis.). TUNEL staining was conducted by using TUNEL apoptosis detection kit (Upstate, Temecula, Calif.) except for using Streptavidin-Alexa Fluor 568 (Molecular Probes, Eugene, Oreg.) instead of Avidine-Rhodamine contained in the kit. Cell death was evaluated by dividing the number of TUNEL-positive cells among the cells positive with anti-GFP staining by the number of these GFP-positive cells.

[4] = system: LNCaP human prostate cancer cells; assay: MTT cell growth assay in LNCaP cells; type: cell-based; details: 24 hrs, M4N 80 μM, Ro 5 μM, Ly 20 μM
Protocol: as §2
MTT assay: Cells were incubated in PBS (−) supplemented with 5% fetal calf serum and 0.5 mg/ml MTT, 3-(4,5-Dimethylthiazol-2-yl)-2,5-diphenyltetrazolium bromide (Sigma, Saint Louis, Mo.) for 2 hrs. After the incubation, the cells were dissolved in dimethyl sulfoxide and the color of the solutions was measured by a spectrophotometer at wavelengths of 540 and 690 nm. The values correlated with viable cell numbers were obtained by subtracting the optical density at 690 nm from that, at 540 nm.

PKCδ [5] = assay: Immunocytochemistry of PKCδ cellular localization in LNCaP cells; type: cell-based, human; details: 5 hrs
Protocol: Immunocytocheimstry: Cells were cultured on glass cover slips coated with poly-L-ornithine (Sigma, Saint Louis, Mo.). At 5 hrs after treatment with drugs, the cells were fixed with 10% formaldehyde in diluted in PBS (−) and washed with PBS (−) three times. After permeabilized by 0.2% Tryton X-100 and 1% goat serum diluted in PBS (−), the cells were blocked by PBS (−) containing 5% goat serum. The cells were then incubated with primary antibodies diluted in PBS (−) containing 0.5% bovine serum albumin (BSA), and with secondary antibodies, which is either anti-IgG conjugated with fluorescein (Vector Laboratories. Burlingame, Calif.), diluted in PBS (−) containing 0.5% BSA. The cells were observed through Zeiss fluorescent microscope (Carl Zeiss, Thornwood, N.Y.).

LNCaP tumors = assay: Nude mice orthotropically implanted with LNCaP tumors, about eight times tumor volume, treatment from day 3; type: in vivo, mouse
Protocol: M4N and Rottlerin were dissolved into a solvent, CPE (25/30) solvent system supplied by Erimos Pharmaceutical, L.L.C. (Raleigh, N.C.) and injected into mice either intravenously or intraperitoneally, T-cell deficient male nude mice (nu/nu) were obtained from Charles River Laboratories (Wilmington, Mass.). M4N and Ly294002 were dissolved into a solvent, CPE (25/30) solvent system supplied by Erimos Pharmaceutical, L.L.C. (Raleigh, N.C.) and injected into mice intravenously.
Surgical orthotropic implantation of LNCaP tumors: LNCaP cells were grown as described above. Cells growing subconfluently were collected and resuspended into the tissue culture medium without fetal bovine serum and antibiotics. After counting the number of the cells, the cell concentration was adjusted using the same medium. After 20 μl of the medium containing a selected number of cancer cells (about 5×10^7 cells) had been mixed together with the same volume of Matrigel (BD science, Bedford, Mass.), the combined solution was injected into the skin of nude mice. […] The tumor tissue extracted from the skin was excised into pieces of about 2 mm diameter. After nude mice were anesthetized by 2,2,2-Tribromoethanol (Aldrich Chemical Co. Inc., Milwaukee, Wis.), a small incision was made at the abdomen of each mouse and a tumor tissue piece was implanted in the neighbor of the prostate of each mouse. Eight days after the operation, the injection of drugs was initiated, and the drugs were injected intravenously every day for the indicated periods
As in the previous experiment (FIGS. 9 to 13), in this study we administered M4N, Ly, Ro, Etoposide, or Rapamycin to mice intravenously using CPE (25/30) solvent system (87). […] However, in this experiment we implanted about eight times the volume of tumors as in the previous experiments to detect the difference of efficacy of various combination treatments much faster. We started to treat the mice with combination treatments three days after the implantation instead of eight days, considering that the tumor volume is already large at the time of implantation in this experiment. This allows less time for possible metastasis to the transplanted tumors in this experiment than in the previous one.

HIF [6] = assay: Western blotting of HIF in 4T1 cells; type: cell-based, mouse; details: 4T1, M4N 80 μM
Protocol: as §1

HIF [7] = assay: Western blotting of HIF in 67NR cells; type: cell-based, mouse; details: M4N 80 μM
Protocol: as §1

[8] = daily (1 mg/day) IV injection, nude mice carrying human tumor xenografts; cited from earlier work
tumors = details: intravenous infusion, cited from earlier work

COc1ccc(C[C@@H](C)[C@@H](C)Cc2ccc(OC)c(OC)c2)cc1OC [M4N, tetra-O-methyl nordihydroguaiaretic acid]
total Akt expression [1]: not changed much | expression of phosphorylated PDK (Ser241), Akt (Ser473), PRAS40 (Thr246), Raf (Ser259), MEK (Ser217/221) ([1]; M4N 80 μM): significant reduction | caspase-9 activation (cleavage) (caspase-9): slightly further augmented | amount of phosphorylated PKCδ at Thr505 (PKCδ [2]): induced phosphorylation | TUNEL-positive cell death [3]: very small | cell growth (MTT) [4]: able to reduce cell growth almost as much as a combination treatment | expression and nuclear level of total PKCδ (PKCδ [5]): Neither M4N, Ro, nor Ly treatment caused any remarkable change | nuclear expression of phosphor-PKCδ (Thr507) (PKCδ [5]): augmented | mice with lung metastasis lesions (LNCaP tumors; combination groups at 80 days after tumor implantation): 2 out of 4 | time after implantation by which all mice died (LNCaP tumors; mouse, in vivo): ≤ 33 days | effect on Desferoxamine-mediated HIF induction (HIF [6]): slightly suppressed | effect on Desferoxamine-mediated HIF induction (HIF [7]): instead enhanced | M4N level accumulated in blood and tumors [8]: above 1 mM | disease stabilization in patients (tumors; Phase I/II): long term stabilization of disease in some patients | tumor shrinkage in patients (tumors): tumor shrinkage has rarely been seen
